Patent US9096639B2, “17-hydroxy-17-pentafluorethyl-estra-4,9(10)-dien-11-acyloxyalkylene phenyl derivatives, methods for the production thereof and use thereof for treating diseases” (Bayer Intellectual Property GmbH, priority 2009, dated 2015)

Assays:
[1] = target: T1, human progesterone receptor B (Homo sapiens, UniProt P06401); assay: Progesterone receptor transactivation test in stably transfected SK-N-MC cells (PR-B, MMTV-LUC reporter); assay type: cell-based; settings: 0.1 nmol/l promegestone, 24 hours, read-out: PR-B IC50 (antagonistic potency)
T1 construct: expressed in transfected cells; host or cells: SK-N-MC human neuroblastoma cells, stably transfected with pRChPR-B-neo and pMMTV-LUC
T1 sequence (P06401 1-933): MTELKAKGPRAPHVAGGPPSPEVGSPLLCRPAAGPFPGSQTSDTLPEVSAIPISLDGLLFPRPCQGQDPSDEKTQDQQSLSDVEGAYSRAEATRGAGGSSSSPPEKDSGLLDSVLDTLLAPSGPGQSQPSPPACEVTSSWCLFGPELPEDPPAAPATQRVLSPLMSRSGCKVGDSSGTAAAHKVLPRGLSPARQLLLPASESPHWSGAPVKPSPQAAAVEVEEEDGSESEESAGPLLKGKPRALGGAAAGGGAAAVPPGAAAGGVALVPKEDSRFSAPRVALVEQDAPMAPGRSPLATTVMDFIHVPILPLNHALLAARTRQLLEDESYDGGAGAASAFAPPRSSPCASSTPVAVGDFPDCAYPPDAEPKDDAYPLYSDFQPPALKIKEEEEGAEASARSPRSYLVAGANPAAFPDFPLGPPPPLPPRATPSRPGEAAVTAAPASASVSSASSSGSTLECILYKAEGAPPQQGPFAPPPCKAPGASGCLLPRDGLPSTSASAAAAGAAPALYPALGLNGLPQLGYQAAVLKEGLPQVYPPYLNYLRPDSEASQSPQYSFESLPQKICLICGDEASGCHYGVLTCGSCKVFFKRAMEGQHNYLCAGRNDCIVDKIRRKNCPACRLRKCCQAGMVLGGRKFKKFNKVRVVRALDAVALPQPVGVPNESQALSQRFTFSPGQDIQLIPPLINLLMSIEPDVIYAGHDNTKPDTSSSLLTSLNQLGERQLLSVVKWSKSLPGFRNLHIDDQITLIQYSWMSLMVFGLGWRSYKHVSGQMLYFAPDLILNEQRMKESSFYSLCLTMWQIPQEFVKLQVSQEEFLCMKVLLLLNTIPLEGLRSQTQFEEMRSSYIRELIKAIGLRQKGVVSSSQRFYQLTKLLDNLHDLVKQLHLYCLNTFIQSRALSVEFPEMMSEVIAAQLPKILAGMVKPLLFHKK
Method: Progesterone receptor-antagonistic action in stable transfectants of human neuroblastoma cells (SK-N-MC cells) with the human progesterone A or progesterone B receptor and an MN-LUC reporter construct SK-N-MC cells (human neuroblastoma cells) which have been stably transfected with plasmids expressing the human progesterone receptor B (pRChPR-B-neo) or the human progesterone receptor A (pRChPR-A-neo) and a reporter construct (pMMTV-LUC) were incubated for 24 hours either in the absence (negative control) or in the presence of ascending amounts of the particular test compound (0.01 nmol/l, 0.1 nmol/l, 1 […], 100 nmol/l and […]), in order to determine the agonistic efficacy. As a positive control of the reporter gene induction, the cells were treated with the synthetic gestagen promegestone (0.01 nmol/l, 0.1 nmol/l, 1 nmol/l, 10 nmol/l, 100 nmol/l and […]). To determine the antagonistic activity, the cells were treated with 0.1 nmol/l promegestone and additionally with ascending amounts of the particular test compound (0.01 nmol/l, 0.1 nmol/l, 1 nmol/l, 10 nmol/l, 100 nmol/l and […]). The activity of the reporter gene LUC (LUC=luciferase) was determined in the cell lysates and measured as RLU (relative light units). All measurements are reported as % efficacy and as EC50 and IC50 concentrations.

[2] = Determination of hydrolytic stability in synthetic gastric juice (pH 1.2 buffer with pepsin); assay type: in vitro ADME; settings: 37° C., pH 1.2 with added pepsin, test ended after 24 hours, read-out: Hydrolytic stability t1/2 in synthetic gastric juice (converted)
Method: The esters to be analyzed were dissolved in each case in a buffer solution of pH 1.2 with added pepsin at 37° C. At different times, the content of ester and hydrolysis products (8S,11R,13S,14S,17S)-17-hydroxy-11-[4-((R)-1-hydroxyethyl)phenyl]-1 3-methyl-17-pentafluoroethyl-1,2,6,7,8,11,12,13,14,15,16,17-dodecahydrocyclopenta[a]phenanthren-3-one and/or (8S,11R,13S,14S,17S)-17-hydroxy-11-[4-((S)-1-hydroxyethyl)phenyl]-13-methyl-17-pentafluoroethyl-1,2,6,7,8,11,12,13,14,15,16,17-dodecahydrocyclopenta[a]phenanthren-3-one was determined by HPLC. The test was ended after 24 hours.

SMILES	IC50 [1] [nM]	half-life [2] [h]
CC(=O)O[C@H](C)c1ccc([C@H]2C[C@@]3(C)C(CC[C@@]3(O)C(F)(F)C(F)(F)F)C3CCC4=CC(=O)CCC4=C32)cc1 (mixture of isomers) [Example 1, acetic acid (RS)-1-[4-((8S,11R,13S,14S,17S)-17-hydroxy-13-methyl-3-oxo-17-pentafluoroethyl-2,3,6,7,8,11,12,13,14,15,16,17-dodecahydro-1H-cyclopenta[a]phenanthren-11-yl)phenyl]ethyl ester]	0.08	9.6
CC(C)CC(=O)OC(C)c1ccc([C@H]2C[C@@]3(C)C(CC[C@@]3(O)C(F)(F)C(F)(F)F)C3CCC4=CC(=O)CCC4=C32)cc1 (mixture of isomers) [Example 3, 3-Methylbutyric acid (RS)-1-[4-((8S,11R,13S,14S,17S)-17-hydroxy-13-methyl-3-oxo-17-pentafluoroethyl-2,3,6,7,8,11,12,13,14,15,16,17-dodecahydro-1H-cyclopenta[a]phenanthren-11-yl)phenyl]ethyl ester]	0.2	> 24
CC(OC(=O)CC(C)(C)C)c1ccc([C@H]2C[C@@]3(C)C(CC[C@@]3(O)C(F)(F)C(F)(F)F)C3CCC4=CC(=O)CCC4=C32)cc1 (mixture of isomers) [Example 4, 3,3-Dimethylbutyric acid (RS)-1-[4-((8S,11R,13S,14S,17S)-17-hydroxy-13-methyl-3-oxo-17-pentafluoroethyl-2,3,6,7,8,11,12,13,14,15,16,17-dodecahydro-1H-cyclopenta[a]phenanthren-11-yl)phenyl]ethyl ester]	0.4	> 24
CC(OC(=O)[C@@H](C)NC(=O)OC(C)(C)C)c1ccc([C@H]2C[C@@]3(C)[C@@H](CC[C@@]3(O)C(F)(F)C(F)(F)F)[C@@H]3CCC4=CC(=O)CCC4=C32)cc1 (mixture of isomers) [Example 6, (R)-2-tert-Butoxycarbonylaminopropionic acid (RS)-1-[4-((8S,11R,13S,-14S,17S)-17-hydroxy-13-methyl-3-oxo-17-pentafluoroethyl-2,3,6,7,8,11,12,13,14,15,16,17-dodecahydro-1H-cyclopenta[a]phenanthren-11-yl)phenyl]ethyl ester]	0.2	5.4
CC(C)C(=O)OC(C)c1ccc([C@H]2C[C@@]3(C)C(CC[C@@]3(O)C(F)(F)C(F)(F)F)C3CCC4=CC(=O)CCC4=C32)cc1 (mixture of isomers) [Example 2, Isobutyric acid (RS)-1-[4-((8S,11R,13S,14S,17S)-17-hydroxy-13-methyl-3-oxo-17-pentafluoroethyl-2,3,6,7,8,11,12,13,14,15,16,17-dodecahydro-1H-cyclopenta[a]-phenanthren-11-yl)phenyl]ethyl ester]	0.1	> 24
CC(OC(=O)[C@@H](NC(=O)OC(C)(C)C)C(C)C)c1ccc([C@H]2C[C@@]3(C)C(CC[C@@]3(O)C(F)(F)C(F)(F)F)C3CCC4=CC(=O)CCC4=C32)cc1 (mixture of isomers) [Example 5, (S)-2-tert-Butoxycarbonylamino-3-methylbutyric acid (RS)-1-[4-((8S,11R,-13S,14S,17S)-17-hydroxy-13-methyl-3-oxo-17-pentafluoroethyl-2,3,6,7,8,11,12,13,14,15,-16,17-dodecahydro-1H-cyclopenta[a]phenanthren-11-yl)phenyl]ethyl ester]	0.8	3
CC(OC(=O)[C@H](C)NC(=O)OC(C)(C)C)c1ccc([C@H]2C[C@@]3(C)C(CC[C@@]3(O)C(F)(F)C(F)(F)F)C3CCC4=CC(=O)CCC4=C32)cc1 (mixture of isomers) [Example 7, (S)-2-tert-Butoxycarbonylaminopropionic acid (RS)-1-[4-((8S,11R,13S,-14S,17S)-17-hydroxy-13-methyl-3-oxo-17-pentafluoroethyl-2,3,6,7,8,11,12,13,14,15,16,17-dodecahydro-1H-cyclopenta[a]phenanthren-11-yl)phenyl]ethyl ester]	0.1	4.4
